From patent publication US8829007B2 (priority 2009, dated 2014) come the findings set out here.

For one experiment, the system named is influenza A virus (A/PR/8/34). The experiment in a line: microbe, parasite or virus in culture. The following applies: Influenza A virus, PR/8, MDCK, mean all; A/PR/8/34 infected MDCK cells, CPE assay; read-out: IC50. In kind it is cell-based.
The term IC50 denotes the concentration that gives 50% inhibition. Consider `O=C1NCCC1Nc1nc(-c2c[nH]c3ncc(Cl)cc23)ncc1F` (centres unmarked) [Compound 380], for which the IC50 is 5 to 20 µM. For `CS(=O)(=O)N1CCCC[C@H]1CNc1nc(-c2c[nH]c3ncc(Cl)cc23)ncc1F` [Compound 384, (S)-2-(5-chloro-1H-pyrrolo[2,3-b]pyridin-3-yl)-5-fluoro-N-((1-(methylsulfonyl)-piperidin-2-yl)methyl)pyrimidin-4-amine], the IC50 is < 5 µM.

Consider `O=S(=O)(C1CC1)N1CCCC[C@H]1CNc1nc(-c2c[nH]c3ncc(Cl)cc23)ncc1F` [Compound 386, (S)-2-(5-chloro-1H-pyrrolo[2,3-b]pyridin-3-yl)-5-fluoro-N-((1-(cyclopropylsulfonyl)-piperidin-2-yl)methyl)pyrimidin-4-amine], for which the IC50 was < 5 µM. The same measure, in the same setting: with `Fc1cnc(-c2c[nH]c3ncc(Cl)cc23)nc1NCC1CN(Cc2ccccc2)CCO1` (centres unmarked) [Compound 388, N-((4-benzylmorpholin-2-yl)methyl)-2-(5-chloro-1H-pyrrolo[2,3-b]pyridin-3-yl)-5-fluoropyrimidin-4-amine] the figure was > 20 µM.

For `CCS(=O)(=O)N1CC[C@H](Nc2nc(-c3c[nH]c4ncc(Cl)cc34)ncc2F)C1` [Compound 399, (S)-2-(5-chloro-1H-pyrrolo[2,3-b]pyridin-3-yl)-N-(1-(ethylsulfonyl)pyrrolidin-3-yl)-5-fluoropyrimidin-4-amine], the IC50 was < 5 µM. For `CC(C)S(=O)(=O)N1CC[C@H](Nc2nc(-c3c[nH]c4ncc(Cl)cc34)ncc2F)C1` [Compound 400, (5)-2-(5-chloro-1H-pyrrolo[2,3-b]pyridin-3-yl)-5-fluoro-N-(1-(isopropylsulfonyl)pyrrolidin-3-yl)pyrimidin-4-amine], the IC50 lay in the range of 5 to 20 µM.

Turning to `O=S(=O)(C1CC1)N1CC[C@H](Nc2nc(-c3c[nH]c4ncc(Cl)cc34)ncc2F)C1` [Compound 401, (S)-2-(5-chloro-1H-pyrrolo[2,3-b]pyridin-3-yl)-N-(1-(cyclopropylsulfonyl)pyrrolidin-3-yl)-5-fluoropyrimidin-4-amine], the IC50 is 5 to 20 µM. Same read-out and setting: in the case of `CCCCS(=O)(=O)N1CC[C@H](Nc2nc(-c3c[nH]c4ncc(Cl)cc34)ncc2F)C1` [Compound 402, (S)—N-(1-(butylsulfonyl)pyrrolidin-3-yl)-2-(5-chloro-1H-pyrrolo[2,3-b]pyridin-3-yl)-5-fluoropyrimidin-4-amine] it was 5 to 20 µM; in that of `O=S(=O)(C1CCCC1)N1CC[C@H](Nc2nc(-c3c[nH]c4ncc(Cl)cc34)ncc2F)C1` [Compound 403, (S)-2-(5-chloro-1H-pyrrolo[2,3-b]pyridin-3-yl)-N-(1-(cyclopentylsulfonyl)pyrrolidin-3-yl)-5-fluoropyrimidin-4-amine], 5 to 20 µM. Same read-out and setting: in the case of `CCCS(=O)(=O)N1CC[C@H](Nc2nc(-c3c[nH]c4ncc(Cl)cc34)ncc2F)C1` [Compound 410, (S)-2-(5-chloro-1H-pyrrolo[2,3-b]pyridin-3-yl)-5-fluoro-N-(1-(propylsulfonyl)pyrrolidin-3-yl)pyrimidin-4-amine] it was 5 to 20 µM.

Consider `Fc1cnc(-c2c[nH]c3ncc(Cl)cc23)nc1N[C@H]1CCN(CC2CC2)C1` [Compound 415, (S)-2-(5-chloro-1H-pyrrolo[2,3-b]pyridin-3-yl)-N-(1-(cyclopropylmethyl)pyrrolidin-3-yl)-5-fluoropyrimidin-4-amine], for which the concentration for half-maximal inhibition (IC50) was > 20 µM.

With `O=C(OC1CCOC1)N1CC(Nc2nc(-c3c[nH]c4ncc(Cl)cc34)ncc2F)C1` [Compound 422, (S)-tetrahydrofuran-3-yl 3-((2-(5-chloro-1H-pyrrolo[2,3-b]pyridin-3-yl)-5-fluoropyrimidin-4-ylamino)azetidine-1-carboxylate], the IC50 is > 20 µM. As for `O=C(O[C@H]1CCOC1)N1CC[C@@H](Nc2nc(-c3c[nH]c4ncc(Cl)cc34)ncc2F)C1` [Compound 424], the IC50 was > 20 µM. Turning to `CN(C)C(=O)N[C@H]1CCCC[C@@H]1Nc1nc(-c2c[nH]c3ncc(Cl)cc23)ncc1F` [Compound 427, 3-[(1S,2S)-2-[[2-(5-chloro-1H-pyrrolo[2,3-b]pyridin-3-yl)-5-fluoro-pyrimidin-4-yl]amino]cyclohexyl]-1,1-dimethyl-urea], the IC50 was > 20 µM. On the same count and under the same terms, in the case of `CC(C)C(=O)N1CCC[C@H](Nc2nc(-c3c[nH]c4ncc(Cl)cc34)ncc2F)C1` [Compound 436] it was < 5 µM. On the same count and under the same terms, with `CC(C)(C)C(=O)N1CCC[C@H](Nc2nc(-c3c[nH]c4ncc(Cl)cc34)ncc2F)C1` [Compound 437] the figure was > 20 µM; with `CCOC(=O)N1CCC[C@H](Nc2nc(-c3c[nH]c4ncc(Cl)cc34)ncc2F)C1` [Compound 441], 5 to 20 µM; with `CC(C)OC(=O)N1CCC[C@H](Nc2nc(-c3c[nH]c4ncc(Cl)cc34)ncc2F)C1` [Compound 442], 5 to 20 µM. On the same count and under the same terms, in the case of `CC1(C(=O)N2CCC[C@H](Nc3nc(-c4c[nH]c5ncc(Cl)cc45)ncc3F)C2)CC1` [Compound 445] it was < 5 µM; in that of `CC(C)NC(=O)N1CCOC(CNc2nc(-c3c[nH]c4ncc(Cl)cc34)ncc2F)C1` (centres unmarked) [Compound 446, 2-((2-(5-chloro-1H-pyrrolo[2,3-b]pyridin-3-yl)-5-fluoropyrimidin-4-ylamino)methyl)-N-isopropylmorpholine-4-carboxamide], > 20 µM; in that of `CC(C)OC(=O)N1CCOC(CNc2nc(-c3c[nH]c4ncc(Cl)cc34)ncc2F)C1` (centres unmarked) [Compound 447, Isopropyl 2-((2-(5-chloro-1H-pyrrolo[2,3-b]pyridin-3-yl)-5-fluoropyrimidin-4-ylamino)methyl)morpholine-4-carboxylate], > 20 µM. `CC(C)S(=O)(=O)N1CCOC(CNc2nc(-c3c[nH]c4ncc(Cl)cc34)ncc2F)C1` (centres unmarked) [Compound 448, 2-(5-chloro-1H-pyrrolo[2,3-b]pyridin-3-yl)-5-fluoro-N-((4-(isopropylsulfonyl)morpholin-2-yl)methyl)pyrimidin-4-amine]: the IC50 is > 20 µM. On to `CCC(=O)N1CCOC(CNc2nc(-c3c[nH]c4ncc(Cl)cc34)ncc2F)C1` (centres unmarked) [Compound 449, 1-(2-((2-(5-chloro-1H-pyrrolo[2,3-b]pyridin-3-yl)-5-fluoropyrimidin-4-ylamino)methyl)morpholino)propan-1-one], for which the IC50 was 5 to 20 µM. In the case of `O=C(C1CC1)N1CCOC(CNc2nc(-c3c[nH]c4ncc(Cl)cc34)ncc2F)C1` (centres unmarked) [Compound 450, (2-((2-(5-chloro-1H-pyrrolo[2,3-b]pyridin-3-yl)-5-fluoropyrimidin-4-ylamino)methyl)morpholino)(cyclopropyl)methanone], the IC50 was 5 to 20 µM.

With `O=C(C1CC1)N1CCC[C@H](Nc2nc(-c3c[nH]c4ncc(Cl)cc34)ncc2F)C1` [Compound 451], the 50% inhibitory concentration (IC50) lay in the range of 5 to 20 µM. Same read-out and setting: in the case of `COCC(=O)N1CC(Nc2nc(-c3c[nH]c4ncc(Cl)cc34)ncc2F)C1` [Compound 468] it was 5 to 20 µM; in that of `O=S(=O)(CC1CCCC1)N1CC(Nc2nc(-c3c[nH]c4ncc(Cl)cc34)ncc2F)C1` [Compound 469, 2-(5-chloro-1H-pyrrolo[2,3-b]pyridin-3-yl)-N-(1-(cyclopentyl-methylsulfonyl)azetidin-3-yl)-5-fluoropyrimidin-4-amine], > 20 µM; in that of `CC1(C(=O)N2CC[C@@H](Nc3nc(-c4c[nH]c5ncc(Cl)cc45)ncc3F)C2)COC1` [Compound 473], 5 to 20 µM. As to `COC(=O)N1CC[C@H](Nc2nc(-c3c[nH]c4ncc(Cl)cc34)ncc2F)C1` [Compound 476], the IC50 is 5 to 20 µM. On to `CC(C)OC(=O)N1CC[C@H](Nc2nc(-c3c[nH]c4ncc(Cl)cc34)ncc2F)C1` [Compound 477], for which the IC50 was > 20 µM. On the same count and under the same terms, with `O=S(=O)(CC1CCCC1)N1CC[C@H](Nc2nc(-c3c[nH]c4ncc(Cl)cc34)ncc2F)C1` [Compound 479, (S)-2-(5-chloro-1H-pyrrolo[2,3-b]pyridin-3-yl)-N-(1-(cyclopentylmethylsulfonyl)pyrrolidin-3-yl)-5-fluoropyrimidin-4-amine] the figure was > 20 µM; with `CC(=O)N1CC[C@H](Nc2nc(-c3c[nH]c4ncc(Cl)cc34)ncc2F)C1` [Compound 480], < 5 µM.

Still in this experiment, the particulars now being: Influenza A virus, PR/8, MDCK; read-out: IC50.
Turning to `CCCS(=O)(=O)N1CC(Nc2nc(-c3c[nH]c4ncc(Cl)cc34)ncc2F)C1` [Compound 423], the IC50 is > 20 µM.

Staying with this experiment, now noted: mean all; A/PR/8/34 infected MDCK cells, CPE assay; read-out: IC50.
For `O=C1CCC(CNc2nc(-c3c[nH]c4ncc(Cl)cc34)ncc2F)CN1` (centres unmarked) [Compound 378], the IC50 is > 20 µM. Same read-out and setting: in the case of `O=S(=O)(CC(F)(F)F)N1CCCC[C@@H]1CNc1nc(-c2c[nH]c3ncc(Cl)cc23)ncc1F` [Compound 387] it was 5 to 20 µM; in that of `CCCCS(=O)(=O)N1CCC(Nc2nc(-c3c[nH]c4ncc(Cl)cc34)ncc2F)C1` (centres unmarked) [Compound 406], > 20 µM. Same read-out and setting: in the case of `CCS(=O)(=O)N1CCC(Nc2nc(-c3c[nH]c4ncc(Cl)cc34)ncc2F)C1` (centres unmarked) [Compound 407] it was > 20 µM. For the molecule `CC(C)S(=O)(=O)N1CCC(Nc2nc(-c3c[nH]c4ncc(Cl)cc34)ncc2F)C1` (centres unmarked) [Compound 408], the IC50 is > 20 µM. For `O=C(OC1CCOC1)N1CCC(Nc2nc(-c3c[nH]c4ncc(Cl)cc34)ncc2F)CC1` (centres unmarked) [Compound 420], the IC50 was > 20 µM. Still for that read-out and setting: with `O=C(OC1CCOC1)N1CCC(Nc2nc(-c3c[nH]c4ncc(Cl)cc34)ncc2F)C1` (centres unmarked) [Compound 421] the figure was 5 to 20 µM; with `CC(=O)NC1CCCCC1Nc1nc(-c2c[nH]c3ncc(Cl)cc23)ncc1F` (centres unmarked) [Compound 429], 5 to 20 µM; with `CC(C)S(=O)(=O)N1CCCC(Nc2ccnc(-c3c[nH]c4ncc(Cl)cc34)n2)C1` (centres unmarked) [Compound 465], 5 to 20 µM. As to `CS(=O)(=O)N1CCCC(Nc2ccnc(-c3c[nH]c4ncc(Cl)cc34)n2)C1` (centres unmarked) [Compound 466], the 50% inhibitory concentration (IC50) lay in the range of 5 to 20 µM.

For the molecule `O=C(C1CCOC1)N1CCC(Nc2nc(-c3c[nH]c4ncc(Cl)cc34)ncc2F)C1` (centres unmarked) [Compound 467], the IC50 was > 20 µM. As to `CC(=O)N1CCC(Nc2nc(-c3c[nH]c4ncc(Cl)cc34)ncc2F)C1` (centres unmarked) [Compound 471], the IC50 was < 5 µM. Turning to `O=C(OCC1CCOC1)N1CCC(Nc2nc(-c3c[nH]c4ncc(Cl)cc34)ncc2F)C1` (centres unmarked) [Compound 475], the IC50 is > 20 µM.

The same experiment, now with this note: read-out: IC50.
In the case of `O=C(C1CCOC1)N1CC[C@H](Nc2nc(-c3c[nH]c4ncc(Cl)cc34)ncc2F)C1` (some centres unmarked) [Compound 478], the IC50 was 5 to 20 µM.
